Read-outs that look alike come from different tables or passages of the source.
Experiments:
[1] = tested on: P. aeruginosa strain CL5701; experiment: Synergy assay (checkerboard) with imipenem; format: cell-based, Pseudomonas aeruginosa; conditions: for In Vitro 2X Synergy CL5701: concentration for 2X synergy with imipenem against P. aeruginosa strain CL5701; for In Vitro 8X Synergy CL5701: concentration for 8X synergy with imipenem against P. aeruginosa strain CL5701; for In Vitro 16X Synergy CL5701: concentration for 16X synergy with imipenem against P. aeruginosa strain CL5701
Source text: The assay determines the concentration of a β-lactamase inhibitor required to reduce the MIC of a β-lactam antibiotic by one-half, one-quarter, one-eighth, one-sixteenth and one-thirty-second against strains of bacteria normally resistant to the antibiotic in question. This is accomplished by titrating the BLI in a serial dilution across a microtiter plate while at the same time titrating the antibiotic in a serial dilution down the microtiter plate and then inoculating the plate with the bacterial strain in question and allowing the bacteria to grow up overnight. Each well in this microplate checkerboard contains a different combination of concentrations of the inhibitor and the antibiotic allowing a full determination of any synergy between the two.
• CL 5701 (Pseudomonas aeruginosa; Pa AmpC)/Imipenem • MB 2646 (Enterobacter cloacae; P99)/Ceftazidime • CL 5513 (Klebsiella pneumoniae; SHV-5)/Ceftazidime • CL 6188 (Acinetobacter baumanii; Oxa40)/Imipenem • CL 6569 (Klebsiella pneumoniae; KPC-2)/Imipenem • CL 5761 (Klebsiella pneumoniae; KPC-3)/Imipenem • CLB 21648 (Acinetobacter baumanii; Ab AmpC)/Imipenem
• 1. […] All wells in row A of MIC 2000 microtiter plates are filled with 100 μL of 2× MHBII+2% DMSO. • 3. […] 100 μL of 2× the final antibiotic concentration wanted is added to wells A2-A12 of the MIC 2000 plates. • 5. 100 μL is serially diluted from row A to row G of each MIC 2000 plate. • 6. 100 μL is removed from each well in row G of each MIC 2000 plate. • 7. 100 μL of 2× the final inhibitor concentration wanted (in MHBII+1% DMSO) is added to all wells in column 1 of the microtiter plates. • 8. 100 μL is serially diluted from column 1 to column 11 of each MIC 2000 plate. • 9. 100 μL is removed from each well in column 11 of each MIC 2000 plate. • 10. Plates are then inoculated with an overnight growth (in TSB) of the strain to be tested using an MIC 2000 inoculator. • 11. Plates are left at 37° C. for about 20 hours and scored for growth by eye.
Synergy may be expressed as a ratio of the minimum inhibitory concentration (MIC) of an antibiotic tested in the absence of a β-lactamase inhibitor to the MIC of the same antibiotic tested in the presence of the β-lactamase inhibitor. […] Alternatively, the synergy effect may be expressed as a factor, again, utilizing a concentration of the BLI to lower the MIC of the antibiotic.
Representative compounds of the present invention display a synergy effect. For example, the compounds of Examples 1 to 20 were determined to have 2× synergy concentrations in a range of from about 100 μM or less.

[2] = target: AmpC (P. aeruginosa.) (Pseudomonas aeruginosa, UniProt P24735); experiment: biochemical; conditions: nitrocefin substrate, pH 7
Method: The Class C enzyme activities were measured in the presence of the test inhibitor in spectrophotometric assay against the commercially available substrate, nitrocefin. The enzyme AmpC (P. aeruginosa.), and the substrate, were dissolved in 100 mM KH2PO4 buffer (pH 7). The buffer also contains 0.005% BSA. The test inhibitor was dissolved in DMSO and diluted 1:20 in the assay, resulting in a final concentration range of 50 μM to 0.0002 μM. In a 96-well microplate, the test inhibitor was incubated with the beta-lactamase enzyme for 40 minutes at ambient temperature, the substrate solution was added, and the incubation continued for another 40 minutes. The spectrophotomertric reaction was quenched by the addition of 2.5N acetic acid and the absorbance at 492 nm was measured. The IC50 value was determined from semi logarithmic plots of enzyme inhibition versus inhibitor concentration, with a curve generated using a 4-parameter fit.

[3] = P. aeruginosa AmpC IC50, 40 min preincubation
[4] = 40 min preincubation, read-out: P. aeruginosa AmpC IC50

AmpC (P. aeruginosa.), sequence (P24735 27-397): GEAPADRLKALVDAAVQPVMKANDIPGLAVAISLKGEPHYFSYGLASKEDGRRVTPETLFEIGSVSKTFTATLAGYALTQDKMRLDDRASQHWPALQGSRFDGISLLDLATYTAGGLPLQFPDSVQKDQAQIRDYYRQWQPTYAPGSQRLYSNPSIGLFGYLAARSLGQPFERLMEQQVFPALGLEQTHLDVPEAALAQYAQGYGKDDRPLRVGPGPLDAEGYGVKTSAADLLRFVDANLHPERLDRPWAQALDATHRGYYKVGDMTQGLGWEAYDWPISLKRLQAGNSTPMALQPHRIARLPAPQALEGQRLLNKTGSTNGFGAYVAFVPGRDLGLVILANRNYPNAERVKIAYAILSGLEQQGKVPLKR

| IC50 [2, 4] [nM] | Compound | In Vitro 2X Synergy CL5701 [1] [µM] | In Vitro 8X Synergy CL5701 [1] [µM] | In Vitro 16X Synergy CL5701 [1] [µM] | IC50 [2, 3] [nM] |
| --- | --- | --- | --- | --- | --- |
| – | O=C(NC1CCNCC1)N1CC[C@@H]2[C@H]1C(=O)N2S(=O)(=O)O [Compound A, reference compound] | 3.7 | 21 | 67 | 6800 |
| – | O=C(NC1CCCCNCC1)N1CC[C@@H]2[C@H]1C(=O)N2S(=O)(=O)O (single isomer, unassigned; isomer b) [Example 18] | 12.5 | >100 | >100 | 25000 |
| 4000 | O=C(N[C@@H]1CCCNCC1)N1CC[C@@H]2[C@H]1C(=O)N2S(=O)(=O)O [Example 2] | 3.1 | 25 | 100 | – |
| 1200 | O=C(N[C@H]1CCCNCC1)N1CC[C@@H]2[C@H]1C(=O)N2S(=O)(=O)O [Example 1] | 2.3 | – | 25 | – |
| – | O=C(NC1CCCCNCC1)N1CC[C@@H]2[C@H]1C(=O)N2S(=O)(=O)O (single isomer, unassigned; isomer a) [Example 17] | 3.1 | 12.5 | 50 | 1300 |
| – | O=C(NC1CCCCCC1)N1CC[C@@H]2[C@H]1C(=O)N2S(=O)(=O)O [Example 3] | 100 | >100 | >100 | 400 |
| 600 | O=C(N[C@@H]1CNCCOC1)N1CC[C@@H]2[C@H]1C(=O)N2S(=O)(=O)O [Example 7, (1S,5R)-2-{[(6R)-1,4-Oxazepan-6-ylamino]carbonyl}-7-oxo-2,6-diazabicyclo[3.2.0]heptane-6-sulfonic acid] | 6.3 | 25 | 100 | – |
| 1100 | O=C(N[C@H]1CNCCOC1)N1CC[C@@H]2[C@H]1C(=O)N2S(=O)(=O)O [Example 8, (1S,5R)-2-{[(6S)-1,4-Oxazepan-6-ylamino]carbonyl}-7-oxo-2,6-diazabicyclo[3.2.0]heptane-6-sulfonic acid] | 6.3 | 50 | 100 | – |

From patent US20100009957A1, “NOVEL INHIBITORS OF BETA-LACTAMASE” (priority 2006, published 2010)
